Tests used:
LS174T xenografts = experiment: Biodistribution of ^125I-CC49-TCO 18 and ^177Lu-tetrazine 15 with one or two doses of 12 (Example 9); type: in vivo, mice
Method: LS174T tumor model. The human colon cancer cell line LS174T was obtained from the ATCC and maintained in Eagle's minimal essential medium (Sigma) supplemented with 10% heat inactivated fetal calf serum (Gibco), penicillin (100 U/mL), streptomycin (100 μg/mL) and […] Glutamax. Nude female Balb/C mice (20-25 g body weight, Charles River Laboratories) were inoculated subcutaneously with 5×10^6 cells in 100 μL sterile PBS.
Nude female mice (n=4) bearing LS174T xenografts (0.29±0.16 g) were injected ^125I-CC49-TCO 18 (t=0, 100 μg/100 μl per mouse) followed by one 160 μg/100 μl dose of galactose-MSA-tetrazine (12) 30 hours post mAb injection, or two 160 μg/100 μl 12 doses 30 and 48 hours post mAb injection. Two hours after the last clearing agent dose the mice were administered 8.52 μg of ^177Lu-labeled tetrazine 15 (10 equiv. with respect to mAb) and were sacrificed 3 hours post tetrazine injection. Blood was withdrawn by heart puncture and selected organs and tissues were harvested and blotted dry. The blood samples and tissues were weighed, added with 1 mL PBS and the radioactivity was counted in a gamma counter along with standards to determine the % ID/g. The differences between columns were analyzed using the two-tailed unpaired t-test (Graphpad Prism v. 5.01)

[1] = Human radiation dosimetry (OLINDA/EXM); settings: human model, 73 Kg adult male
Method: (§1) Radiation dosimetry estimates were calculated for a male human model (standard 73 Kg adult) and for a voxelized mouse model by using the mouse biodistribution data (Example 12, Tables 7 and 8) according to the MIRD methodology. Activity concentration in these organs were converted in percent injected dose (% ID) and decay corrected to the time of injection. The % ID for blood, muscle and bone were estimated from the % ID/g of tissue and assuming 6%, 42% and 11% of the body weight. Whenever possible the time activity curves were fitted by a two-phase exponential clearance function. The fitted function was then integrated analytically to yield the organ residence times (Table 9). […] The time activity curve of the tumor was fitted by a mono-exponential uptake function defined as F(t)=a0(1−exp(−a1t)).
Human radiation dosimetry (Table 10) were calculated using the above measured residence times and the OLINDA/EXM program with the following assumptions: 10% of the blood residence time was assigned to the heart content and 90% was assigned to the remainder of the body; the activity measured in the small and large intestines were assigned to the organ content but the radiation dose was assigned to the organ itself; activity in the large intestine was assigned in equal part to the upper and lower large intestines; activity in the bone was assigned in equal parts to the trabecular and […] bone components. The bladder voiding model in OLINDA/EXM was used. Residence time to the red marrow was calculated as a fraction of blood residence time (τmarrow=0.08 τblood).

[2] = Mouse radiation dosimetry (voxelized mouse model, EGSNRC)
Method: as §1
Radiation doses to the mouse organs were evaluated using the MIRD methodology where the S-factors in the mouse were calculated using a voxelized model of a mouse and the electron transport program EGSNRC to calculate energy deposition. The MOBY mouse phantom of Segars et al. was voxelized on a 0.2 mm grid and further modified to include the following organs: intestine wall and content, stomach wall and content, bladder wall and content and a 20 μl gall bladder. Finally, a 0.53 g tumor was added to the left side of the neck of the animal. Twenty-seven independent simulations, each for 10 millions decays, were performed with the program EGSNRC to calculate the energy deposition in each target organ for each source organ. The simulation included all decay particles from ^177Lu as listed in www.nndc.bnl.gov/MIRD tables. These S-factors were then used with the organ residence times measured above.

[3] = Two doses of 12, 30 and 48 h post mAb

**Q.** What does the source list for `O=C([O-])CN1CCN(CC(=O)[O-])CCN(CC(=O)NCCOCCOCCOCCOCCOCCOCCOCCOCCOCCOCCOCCNC(=O)CCCC(=O)Nc2ccc(-c3nnc(-c4ccccn4)nn3)nc2)CCN(CC(=O)[O-])CC1.[177Lu+3]` [^177Lu-tetrazine]?
**A.** ^177Lu-tetrazine T/blood (LS174T xenografts; One dose of 12, 30 h post mAb): 45.9±14.2; ^177Lu-tetrazine T/bone (LS174T xenografts; One dose of 12, 30 h post mAb): 136.1 ± 68.7; ^177Lu-tetrazine T/brain (LS174T xenografts; One dose of 12, 30 h post mAb): 935.9 ± 297.1; ^177Lu-tetrazine T/heart (LS174T xenografts; One dose of 12, 30 h post mAb): 64.7 ± 18.0; ^177Lu-tetrazine T/kidney (LS174T xenografts; One dose of 12, 30 h post mAb): 7.9 ± 3.3; ^177Lu-tetrazine T/liver (LS174T xenografts; One dose of 12, 30 h post mAb): 32.4 ± 6.3; ^177Lu-tetrazine T/lung (LS174T xenografts; One dose of 12, 30 h post mAb): 28.1 ± 11.8; ^177Lu-tetrazine T/muscle (LS174T xenografts; One dose of 12, 30 h post mAb): 128.5 ± 83.7; ^177Lu-tetrazine T/spleen (LS174T xenografts; One dose of 12, 30 h post mAb): 50.5 ± 10.9; ^177Lu-tetrazine in blood (LS174T xenografts; One dose of 12, 30 h post mAb): 0.17 ± 0.06 % ID/g; ^177Lu-tetrazine in bone (LS174T xenografts; One dose of 12, 30 h post mAb): 0.06 ± 0.03 % ID/g; ^177Lu-tetrazine in brain (LS174T xenografts; One dose of 12, 30 h post mAb): 0.01 ± 0.00 % ID/g; ^177Lu-tetrazine in heart (LS174T xenografts; One dose of 12, 30 h post mAb): 0.12 ± 0.03 % ID/g; ^177Lu-tetrazine in kidney (LS174T xenografts; One dose of 12, 30 h post mAb): 1.06 ± 0.39 % ID/g; ^177Lu-tetrazine in liver (LS174T xenografts; One dose of 12, 30 h post mAb): 0.23 ± 0.00 % ID/g; ^177Lu-tetrazine in lung (LS174T xenografts; One dose of 12, 30 h post mAb): 0.28 ± 0.05 % ID/g; ^177Lu-tetrazine in muscle (LS174T xenografts; One dose of 12, 30 h post mAb): 0.08 ± 0.04 % ID/g; ^177Lu-tetrazine in spleen (LS174T xenografts; One dose of 12, 30 h post mAb): 0.15 ± 0.03 % ID/g; ^177Lu-tetrazine in tumor (LS174T xenografts; One dose of 12, 30 h post mAb): 7.48 ± 1.46 % ID/g; ^177Lu-tetrazine T/bone (LS174T xenografts; [3]): 123.3 ± 80.3; ^177Lu-tetrazine T/brain (LS174T xenografts; [3]): 1146.7 ± 122.9; ^177Lu-tetrazine T/heart (LS174T xenografts; [3]): 142.4 ± 18.5; ^177Lu-tetrazine T/kidney (LS174T xenografts; [3]): 3.4 ± 0.4; ^177Lu-tetrazine T/liver (LS174T xenografts; [3]): 30.8 ± 2.9; ^177Lu-tetrazine T/lung (LS174T xenografts; [3]): 26.2 ± 3.9; ^177Lu-tetrazine T/muscle (LS174T xenografts; [3]): 140.9 ± 67.1; ^177Lu-tetrazine T/spleen (LS174T xenografts; [3]): 63.7 ± 9.2; ^177Lu-tetrazine in blood (LS174T xenografts; [3]): 0.03 ± 0.00 % ID/g; ^177Lu-tetrazine in bone (LS174T xenografts; [3]): 0.08 ± 0.08 % ID/g; ^177Lu-tetrazine in brain (LS174T xenografts; [3]): 0.00 ± 0.00 % ID/g; ^177Lu-tetrazine in heart (LS174T xenografts; [3]): 0.04 ± 0.00 % ID/g; ^177Lu-tetrazine in kidney (LS174T xenografts; [3]): 1.58 ± 0.14 % ID/g; ^177Lu-tetrazine in liver (LS174T xenografts; [3]): 0.18 ± 0.02 % ID/g; ^177Lu-tetrazine in lung (LS174T xenografts; [3]): 0.21 ± 0.03 % ID/g; ^177Lu-tetrazine in muscle (LS174T xenografts; [3]): 0.05 ± 0.03 % ID/g; ^177Lu-tetrazine in spleen (LS174T xenografts; [3]): 0.09 ± 0.01 % ID/g; ^177Lu-tetrazine in tumor (LS174T xenografts; [3]): 5.38 ± 0.48 % ID/g; Effective Dose [1]: 0.0195 mSv/MBq; Organ Radiation dose Adrenals [1]: 0.00162 mGy/MBq; Organ Radiation dose Bladder Wall [1]: 0.104 mGy/MBq; Organ Radiation dose Brain [1]: 0.000146 mGy/MBq; Organ Radiation dose Breasts [1]: 0.0013 mGy/MBq; Organ Radiation dose Gall Bladder Wall [1]: 0.0018 mGy/MBq; Organ Radiation dose Heart Wall [1]: 0.000537 mGy/MBq; Organ Radiation dose Kidneys [1]: 0.0425 mGy/MBq; Organ Radiation dose Liver [1]: 0.0142 mGy/MBq; Organ Radiation dose Lower Large Int. [1]: 0.0363 mGy/MBq; Organ Radiation dose Lungs [1]: 0.00288 mGy/MBq; Organ Radiation dose Muscle [1]: 0.000861 mGy/MBq; Organ Radiation dose Osteogenic cells [1]: 0.00172 mGy/MBq; Organ Radiation dose Ovaries [1]: 0.0341 mGy/MBq; Organ Radiation dose Pancreas [1]: 0.00164 mGy/MBq; Organ Radiation dose Red marrow [1]: 0.00302 mGy/MBq; Organ Radiation dose Skin [1]: 0.0029 mGy/MBq; Organ Radiation dose Small Intestines [1]: 0.0101 mGy/MBq; Organ Radiation dose Spleen [1]: 0.0112 mGy/MBq; Organ Radiation dose Stomach Wall [1]: 0.00599 mGy/MBq; Organ Radiation dose Testes [1]: 0.00151 mGy/MBq; Organ Radiation dose Thymus [1]: 0.00134 mGy/MBq; Organ Radiation dose Thyroid [1]: 0.00132 mGy/MBq; Organ Radiation dose Total Body [1]: 0.00287 mGy/MBq; Organ Radiation dose Upper large Int. [1]: 0.0231 mGy/MBq; Organ Radiation dose Uterus [1]: 0.0293 mGy/MBq; Effective Dose [2]: 15.6 mSv/MBq; Organ Radiation dose Bladder Wall [2]: 168 mGy/MBq; Organ Radiation dose Brain [2]: 1 mGy/MBq; Organ Radiation dose Cranium [2]: 13 mGy/MBq; Organ Radiation dose Femur [2]: 8 mGy/MBq; Organ Radiation dose Gall Bladder [2]: 2 mGy/MBq; Organ Radiation dose Heart Wall [2]: 2 mGy/MBq; Organ Radiation dose Intestine Wall [2]: 9 mGy/MBq; Organ Radiation dose Kidneys [2]: 58 mGy/MBq; Organ Radiation dose Liver [2]: 10 mGy/MBq; Organ Radiation dose Lungs [2]: 5 mGy/MBq; Organ Radiation dose Pancreas [2]: 2 mGy/MBq; Organ Radiation dose Ribs [2]: 8 mGy/MBq; Organ Radiation dose Skin [2]: 1 mGy/MBq; Organ Radiation dose Spine [2]: 8 mGy/MBq; Organ Radiation dose Spine (marrow) [2]: 7 mGy/MBq; Organ Radiation dose Spleen [2]: 15 mGy/MBq; Organ Radiation dose Stomach Wall [2]: 16 mGy/MBq; Organ Radiation dose Testes (ovaries) [2]: 1 mGy/MBq; Organ Radiation dose Thyroid [2]: 1 mGy/MBq; Organ Radiation dose Trachea [2]: 2 mGy/MBq; Radiation dose Whole Body [2]: 5 mGy/MBq; Radiation dose Tumor ([2]; 0.53 g tumor): 479 mGy/MBq
